Reference: patent US20220242863A1, “COMPOUNDS FOR TREATMENT OF EYE DISORDERS” (SINOPSEE THERAPEUTICS, priority 2019, published 2022)
Where two headings read alike, the source gives them in different places.

Tests used:
[1] = test system: BA/F3 cells expressing PDGFR; experiment: Cell viability by MTS assay (MTS Assay 1); type: cell-based; conditions: for Activity in MTS cell viability assay compared to imatinib and quizartinib controls: Ba/F3 cells expressing PDGFR, FIG. 2
Procedure: (§1) The effect of the compounds on cell viability were determined using MTS assay. MTS Cell Proliferation Assay Kit is a colorimetric method for sensitive quantification of viable cells in proliferation and cytotoxicity assay. The method is based on the reduction of MTS tetrazolium compound by viable cells to generate a colored formazan product that is soluble in cell culture media. BA/F3 cells expressing the receptor tyrosine kinase (either PDGFR [MTS Assay 1] or FIt3 [MTS Assay 2]) were cultured in standard culture conditions in a 96-well microtiter plate (final volume of 200 μl/well) in the absence or presence of the compound to be tested and were incubated for 20-48 hrs. MTS Reagent (20 μl/well) was added into each well & incubated for 0.5-4 hours at 37° C. in standard culture conditions. Absorbance at 490 nm was recorded using a plate reader.
(§2) Results are shown in FIGS. 2 and 3 and Table 2 (where IC50 indicates the concentration of compound required to reduce cell viability to 50%).
For the MTS Assay, the result indicates the concentration of compound required to reduce cell viability to 50%.

Flt3 = target: T1, Flt3 (Homo sapiens, UniProt P36888); experiment: In vitro kinase assay ([γ-33P]-ATP); type: biochemical; conditions: ATP at apparent Km of the kinase
T1 sequence (P36888 27-993): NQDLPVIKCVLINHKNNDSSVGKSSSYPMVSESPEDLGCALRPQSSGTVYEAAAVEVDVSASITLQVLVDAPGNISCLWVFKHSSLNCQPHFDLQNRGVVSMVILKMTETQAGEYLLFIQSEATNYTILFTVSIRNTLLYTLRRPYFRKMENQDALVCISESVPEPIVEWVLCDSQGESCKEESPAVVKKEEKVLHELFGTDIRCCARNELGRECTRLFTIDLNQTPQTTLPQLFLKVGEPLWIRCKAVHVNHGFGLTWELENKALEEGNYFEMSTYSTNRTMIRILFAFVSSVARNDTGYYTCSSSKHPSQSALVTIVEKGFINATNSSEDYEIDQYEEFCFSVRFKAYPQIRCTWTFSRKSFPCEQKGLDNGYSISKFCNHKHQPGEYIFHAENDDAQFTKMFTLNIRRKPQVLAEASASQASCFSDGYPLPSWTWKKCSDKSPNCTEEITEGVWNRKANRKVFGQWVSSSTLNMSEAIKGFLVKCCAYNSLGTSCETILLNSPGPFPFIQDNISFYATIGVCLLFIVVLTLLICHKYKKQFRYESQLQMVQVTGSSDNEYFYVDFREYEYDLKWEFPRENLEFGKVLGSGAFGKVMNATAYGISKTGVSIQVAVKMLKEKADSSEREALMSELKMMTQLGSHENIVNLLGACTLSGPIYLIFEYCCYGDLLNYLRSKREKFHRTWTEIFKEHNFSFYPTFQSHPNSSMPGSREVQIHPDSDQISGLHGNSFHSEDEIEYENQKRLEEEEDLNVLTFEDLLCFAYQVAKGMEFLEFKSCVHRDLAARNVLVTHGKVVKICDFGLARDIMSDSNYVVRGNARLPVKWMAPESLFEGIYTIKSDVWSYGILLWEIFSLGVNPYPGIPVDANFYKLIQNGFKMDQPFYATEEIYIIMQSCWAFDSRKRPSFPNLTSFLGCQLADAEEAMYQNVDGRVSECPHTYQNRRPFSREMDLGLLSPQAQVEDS
Procedure: (§3) To determine the inhibitory activity of compounds, in vitro kinase assays were performed on respective enzymes purified from Sf9 insect cells or E. coli as recombinant GST-fusion proteins or His-tagged proteins.

CDK19 = CDK19 (Homo sapiens, UniProt Q9BWU1); experiment: In vitro kinase assay ([γ-33P]-ATP); type: biochemical; conditions: ATP at apparent Km of the kinase
Sequence of CDK19 (Q9BWU1 whole entry, species assumed): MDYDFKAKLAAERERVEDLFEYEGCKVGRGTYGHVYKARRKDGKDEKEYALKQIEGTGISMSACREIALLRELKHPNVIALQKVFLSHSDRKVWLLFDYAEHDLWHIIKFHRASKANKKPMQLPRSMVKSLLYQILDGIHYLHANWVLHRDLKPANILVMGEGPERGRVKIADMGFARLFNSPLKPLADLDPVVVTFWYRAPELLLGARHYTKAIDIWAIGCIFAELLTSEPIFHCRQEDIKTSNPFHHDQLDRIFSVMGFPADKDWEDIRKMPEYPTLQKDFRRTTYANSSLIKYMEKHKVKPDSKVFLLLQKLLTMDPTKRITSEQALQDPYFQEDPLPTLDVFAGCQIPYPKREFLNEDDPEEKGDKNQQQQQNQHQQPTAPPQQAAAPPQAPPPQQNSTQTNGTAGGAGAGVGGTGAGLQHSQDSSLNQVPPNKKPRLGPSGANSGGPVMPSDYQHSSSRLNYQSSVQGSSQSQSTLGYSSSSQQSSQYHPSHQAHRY
Sequence of CDK19 (P24863 whole entry partner, species assumed): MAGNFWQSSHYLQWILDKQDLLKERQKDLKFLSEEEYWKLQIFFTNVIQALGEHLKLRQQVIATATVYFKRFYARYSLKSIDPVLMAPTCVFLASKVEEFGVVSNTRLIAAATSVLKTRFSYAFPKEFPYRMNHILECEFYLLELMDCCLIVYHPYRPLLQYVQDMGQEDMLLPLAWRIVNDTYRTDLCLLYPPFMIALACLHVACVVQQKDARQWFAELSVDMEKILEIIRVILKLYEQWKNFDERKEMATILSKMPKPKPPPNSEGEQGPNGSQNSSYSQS
Procedure: as §3

VEGFR-2 = VEGFR-2 (Homo sapiens, UniProt P35968); experiment: In vitro kinase assay ([γ-33P]-ATP); type: biochemical; conditions: ATP at apparent Km of the kinase
Sequence of VEGFR-2 (P35968 20-1356): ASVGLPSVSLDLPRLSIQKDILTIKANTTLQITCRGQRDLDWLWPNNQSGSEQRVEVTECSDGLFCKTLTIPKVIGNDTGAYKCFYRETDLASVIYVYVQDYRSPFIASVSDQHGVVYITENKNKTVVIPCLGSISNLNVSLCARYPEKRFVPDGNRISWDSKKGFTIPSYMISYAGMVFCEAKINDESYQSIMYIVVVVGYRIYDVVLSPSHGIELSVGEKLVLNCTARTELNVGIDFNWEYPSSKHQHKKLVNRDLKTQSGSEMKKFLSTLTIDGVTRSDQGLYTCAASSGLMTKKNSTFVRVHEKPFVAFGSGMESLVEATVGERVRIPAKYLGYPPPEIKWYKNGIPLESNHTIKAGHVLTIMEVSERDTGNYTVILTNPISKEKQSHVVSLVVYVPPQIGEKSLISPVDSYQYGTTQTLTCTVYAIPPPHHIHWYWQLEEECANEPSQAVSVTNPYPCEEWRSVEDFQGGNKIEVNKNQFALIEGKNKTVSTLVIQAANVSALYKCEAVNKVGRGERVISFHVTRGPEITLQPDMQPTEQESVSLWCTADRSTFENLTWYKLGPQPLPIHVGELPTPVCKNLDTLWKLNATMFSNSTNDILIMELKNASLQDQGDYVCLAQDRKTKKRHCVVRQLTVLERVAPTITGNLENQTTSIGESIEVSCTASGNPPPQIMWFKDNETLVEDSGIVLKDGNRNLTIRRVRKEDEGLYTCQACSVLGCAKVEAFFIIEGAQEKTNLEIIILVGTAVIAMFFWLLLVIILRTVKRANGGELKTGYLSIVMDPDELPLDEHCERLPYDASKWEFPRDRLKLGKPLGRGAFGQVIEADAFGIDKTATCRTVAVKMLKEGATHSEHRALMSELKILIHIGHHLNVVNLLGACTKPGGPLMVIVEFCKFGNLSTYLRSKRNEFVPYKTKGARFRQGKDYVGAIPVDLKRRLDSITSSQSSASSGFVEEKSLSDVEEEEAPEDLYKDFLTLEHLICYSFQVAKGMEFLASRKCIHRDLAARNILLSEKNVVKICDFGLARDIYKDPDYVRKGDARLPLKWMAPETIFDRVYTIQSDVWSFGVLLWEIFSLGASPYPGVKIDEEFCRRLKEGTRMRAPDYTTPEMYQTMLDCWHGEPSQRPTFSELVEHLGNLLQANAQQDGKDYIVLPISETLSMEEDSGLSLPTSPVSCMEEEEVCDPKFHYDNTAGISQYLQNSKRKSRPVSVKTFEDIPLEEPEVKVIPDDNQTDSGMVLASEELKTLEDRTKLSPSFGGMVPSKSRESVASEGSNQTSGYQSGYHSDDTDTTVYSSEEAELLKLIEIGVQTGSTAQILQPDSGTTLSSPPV
Procedure: as §3

PDGFR-α = PDGFR-α (Homo sapiens, UniProt P16234); experiment: In vitro kinase assay ([γ-33P]-ATP); type: biochemical; conditions: ATP at apparent Km of the kinase
Sequence of PDGFR-α (P16234 24-1089): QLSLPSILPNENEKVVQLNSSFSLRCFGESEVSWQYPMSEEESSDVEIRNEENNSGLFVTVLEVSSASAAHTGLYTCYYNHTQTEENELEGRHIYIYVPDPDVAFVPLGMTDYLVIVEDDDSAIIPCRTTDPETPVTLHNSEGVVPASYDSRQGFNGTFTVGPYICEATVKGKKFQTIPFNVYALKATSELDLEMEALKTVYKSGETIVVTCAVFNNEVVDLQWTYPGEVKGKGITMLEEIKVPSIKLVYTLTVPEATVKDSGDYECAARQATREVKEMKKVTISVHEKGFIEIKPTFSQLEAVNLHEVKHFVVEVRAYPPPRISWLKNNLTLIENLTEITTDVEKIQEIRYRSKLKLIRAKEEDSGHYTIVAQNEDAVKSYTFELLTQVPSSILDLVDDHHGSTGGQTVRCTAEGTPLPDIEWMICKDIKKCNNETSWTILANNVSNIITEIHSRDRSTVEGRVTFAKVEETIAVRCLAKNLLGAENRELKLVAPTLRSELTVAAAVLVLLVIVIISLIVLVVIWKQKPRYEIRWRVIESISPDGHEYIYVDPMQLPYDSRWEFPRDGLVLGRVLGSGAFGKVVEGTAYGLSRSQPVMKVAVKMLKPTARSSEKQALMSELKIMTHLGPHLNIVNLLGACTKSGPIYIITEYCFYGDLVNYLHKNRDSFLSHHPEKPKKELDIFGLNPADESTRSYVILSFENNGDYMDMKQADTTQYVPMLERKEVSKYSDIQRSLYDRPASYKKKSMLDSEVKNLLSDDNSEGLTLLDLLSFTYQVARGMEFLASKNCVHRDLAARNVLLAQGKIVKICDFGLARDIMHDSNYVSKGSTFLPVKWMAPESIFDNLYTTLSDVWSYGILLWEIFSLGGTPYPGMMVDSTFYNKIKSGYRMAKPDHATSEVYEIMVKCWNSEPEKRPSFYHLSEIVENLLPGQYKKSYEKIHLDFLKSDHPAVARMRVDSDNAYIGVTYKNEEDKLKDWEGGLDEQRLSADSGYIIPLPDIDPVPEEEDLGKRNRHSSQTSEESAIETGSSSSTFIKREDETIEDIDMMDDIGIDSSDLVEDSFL
Procedure: as §3

CDK8 = CDK8 (Homo sapiens, UniProt P49336); experiment: In vitro kinase assay ([γ-33P]-ATP); type: biochemical; conditions: ATP at apparent Km of the kinase
Sequence of CDK8 (P49336 whole entry, species assumed): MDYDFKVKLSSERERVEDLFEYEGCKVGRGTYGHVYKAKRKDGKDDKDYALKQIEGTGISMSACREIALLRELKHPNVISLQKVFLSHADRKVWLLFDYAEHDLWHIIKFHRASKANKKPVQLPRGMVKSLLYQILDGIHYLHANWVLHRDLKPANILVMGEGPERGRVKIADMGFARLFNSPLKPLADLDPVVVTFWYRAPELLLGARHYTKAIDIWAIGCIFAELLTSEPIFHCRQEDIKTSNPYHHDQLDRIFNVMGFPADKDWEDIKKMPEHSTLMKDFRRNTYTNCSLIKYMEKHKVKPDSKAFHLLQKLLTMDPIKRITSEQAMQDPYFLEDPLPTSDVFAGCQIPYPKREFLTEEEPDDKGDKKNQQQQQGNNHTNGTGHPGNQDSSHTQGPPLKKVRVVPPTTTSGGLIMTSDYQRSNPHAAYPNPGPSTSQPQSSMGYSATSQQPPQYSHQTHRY
Sequence of CDK8 (P24863 whole entry partner, species assumed): as the sequence (P24863 whole entry partner, species assumed) above
Procedure: as §3

PDGFRβ [2] = target: T2, PDGFRβ (Homo sapiens, UniProt P09619); experiment: In vitro kinase assay ([γ-33P]-ATP); type: biochemical; conditions: ATP at apparent Km of the kinase
T2 sequence (P09619 33-1106): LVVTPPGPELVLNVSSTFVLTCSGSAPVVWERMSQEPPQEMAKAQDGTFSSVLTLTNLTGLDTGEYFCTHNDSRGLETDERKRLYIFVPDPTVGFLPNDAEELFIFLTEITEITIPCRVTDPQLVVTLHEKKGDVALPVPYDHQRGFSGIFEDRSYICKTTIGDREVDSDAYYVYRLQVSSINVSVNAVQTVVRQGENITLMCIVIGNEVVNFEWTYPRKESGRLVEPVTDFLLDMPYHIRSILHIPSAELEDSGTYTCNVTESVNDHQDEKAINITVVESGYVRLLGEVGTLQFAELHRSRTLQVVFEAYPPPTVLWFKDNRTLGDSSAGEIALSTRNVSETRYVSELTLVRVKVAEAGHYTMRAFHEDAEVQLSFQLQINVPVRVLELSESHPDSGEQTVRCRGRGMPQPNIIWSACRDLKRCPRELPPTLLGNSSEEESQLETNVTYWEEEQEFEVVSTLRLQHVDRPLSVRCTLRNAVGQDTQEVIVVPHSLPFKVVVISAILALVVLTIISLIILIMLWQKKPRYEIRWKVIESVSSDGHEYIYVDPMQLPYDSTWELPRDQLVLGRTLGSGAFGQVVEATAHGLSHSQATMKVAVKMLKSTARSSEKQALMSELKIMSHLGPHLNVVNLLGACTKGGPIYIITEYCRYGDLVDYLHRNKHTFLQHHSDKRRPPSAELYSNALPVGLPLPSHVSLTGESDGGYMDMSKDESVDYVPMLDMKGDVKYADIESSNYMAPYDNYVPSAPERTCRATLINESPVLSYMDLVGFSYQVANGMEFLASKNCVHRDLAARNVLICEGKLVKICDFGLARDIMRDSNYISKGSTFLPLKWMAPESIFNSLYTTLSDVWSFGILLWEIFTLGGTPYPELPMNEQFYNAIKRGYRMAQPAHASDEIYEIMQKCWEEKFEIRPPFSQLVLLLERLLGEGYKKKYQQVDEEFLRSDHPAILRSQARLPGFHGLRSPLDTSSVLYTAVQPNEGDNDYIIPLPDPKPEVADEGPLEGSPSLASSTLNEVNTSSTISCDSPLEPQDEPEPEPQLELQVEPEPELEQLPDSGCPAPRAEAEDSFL
Procedure: as §3

[3] = test system: BA/F3 cells expressing FIt3; experiment: Cell viability by MTS assay (MTS Assay 2); type: cell-based; conditions: Mus musculus, BaF3, concentration required to reduce cell viability to 50%, 20-48 hrs
Procedure: as §1, §2
In Table 3: • L represents an IC50 of less than 500 nM • M represents an IC50 of between 500 nM and 5000 nM • H represents an IC50 of more than 5000 nM • For the MTS Assay, the result indicates the concentration of compound required to reduce cell viability to 50%.

PDGFRβ [4] = target: T2, PDGFRβ; experiment: Western blot of PDGFRβ autophosphorylation and Shp2 phosphorylation in HEK293 cell line model; type: cell-based; design: expressed in transfected cells; host or cells: HEK293; conditions: HEK293 cells expressing PDGFRβ, 20 ng/ml PDGF; FIG. 1
Procedure: Human Embryonic kidney cells (HEK293) were constructed to express human PDGFRWT under the control of constitutive CMV promoter. Cells were grown in the presence of 20 ng/ml PDGF (the ligand for the PDGFRβ) to activate the PDGFRβ. Different concentrations of the compounds of Examples 1 and 2 were added to study their effect on the PDGFRβ-mediated signaling. Autophosphorylation of PDGFRβ and Shp2 phosphorylation were monitored by Western blotting and were used as the markers for PDGFRβ signaling. β-Actin was used as an internal control.

[5] = Mus musculus, BaF3, concentration required to reduce cell viability to 50%, BA/F3 cells expressing PDGFR, 20-48 hrs, read-out: IC50 (nM) MTS Assay 1

Cc1cnc(NC(=O)COc2ccc(-c3cnc4cnccn34)cn2)cc1C(F)(F)F [Example 3]
Activity in MTS cell viability assay compared to imatinib and quizartinib controls [1]: improved activity when compared to the imatinib and quizartinib controls

Cc1ccc(NC(=O)c2ccc(Nc3cnc4cnccn34)cc2)cc1C(F)(F)F [Example 14]
IC50 (Flt3): > 5000 nM
IC50 (CDK19): 500 to 5000 nM
IC50 (VEGFR-2): > 5000 nM
IC50 (PDGFR-α): > 5000 nM
IC50 (CDK8): 500 to 5000 nM
IC50 (PDGFRβ [2]): > 5000 nM

Cc1ccc(NC(=O)COc2ccc(-c3cnc4cnccn34)c(F)n2)cc1C(F)(F)F [Example 7]
IC50 [3]: < 500 nM
IC50 [1, 5]: < 500 nM

Cc1ccc(NC(=O)CNc2ccc(-c3cnc4cnccn34)cc2)cc1C(F)(F)F [Example 15]
IC50 [3]: < 500 nM
IC50 (Flt3): < 500 nM
IC50 (CDK19): < 500 nM
IC50 (VEGFR-2): < 500 nM
IC50 (PDGFR-α): < 500 nM
IC50 (CDK8): < 500 nM
IC50 (PDGFRβ [2]): < 500 nM

Cc1ccc(NC(=O)COc2ccc(-c3cnc4ccccn34)cn2)cc1C(F)(F)F [Example 2]
Inhibition of PDGFRβ signaling (PDGFRβ autophosphorylation, Shp2 phosphorylation) (PDGFRβ [4]): able to inhibit PDGFRβ signaling

Cn1nc(NC(=O)COc2ccc(-c3cnn4cccnc34)cc2)cc1C(F)(F)F [Example 19]
IC50 (Flt3): < 500 nM
IC50 (CDK19): < 500 nM
IC50 (VEGFR-2): < 500 nM
IC50 (PDGFR-α): < 500 nM
IC50 (CDK8): < 500 nM
IC50 (PDGFRβ [2]): < 500 nM

Cn1nc(NC(=O)CNc2ccc(-c3cnc4cnccn34)cc2)cc1C(F)(F)F [Example 17]
IC50 (Flt3): < 500 nM
IC50 (CDK19): < 500 nM
IC50 (VEGFR-2): < 500 nM
IC50 (PDGFR-α): < 500 nM
IC50 (CDK8): < 500 nM
IC50 (PDGFRβ [2]): < 500 nM

O=C(CNc1ccc(-c2cnc3cnccn23)cc1)Nc1cc(C(F)(F)F)c(Cl)cn1 [Example 16]
IC50 (Flt3): < 500 nM
IC50 (CDK19): < 500 nM
IC50 (VEGFR-2): < 500 nM
IC50 (PDGFR-α): < 500 nM
IC50 (CDK8): < 500 nM
IC50 (PDGFRβ [2]): < 500 nM

CC(Oc1ccc(-c2cnc3cnccn23)cn1)C(=O)Nc1cc(C(F)(F)F)c(Cl)cn1 (stereo not drawn) [Example 13]
IC50 (Flt3): > 5000 nM
IC50 (CDK19): 500 to 5000 nM
IC50 (VEGFR-2): 500 to 5000 nM
IC50 (PDGFR-α): 500 to 5000 nM
IC50 (CDK8): 500 to 5000 nM
IC50 (PDGFRβ [2]): 500 to 5000 nM

O=C(Nc1cc(C(F)(F)F)c(Cl)cn1)C1(Oc2ccc(-c3cnc4cnccn34)cn2)CC1 [Example 12]
IC50 (Flt3): > 5000 nM
IC50 (CDK19): > 5000 nM
IC50 (VEGFR-2): > 5000 nM
IC50 (PDGFR-α): > 5000 nM
IC50 (CDK8): > 5000 nM
IC50 (PDGFRβ [2]): > 5000 nM

Cn1nc(NC(=O)COc2ccc(-c3cnc4ccccn34)cn2)cc1C(F)(F)F [Example 1]
IC50 [3]: < 500 nM
IC50 (Flt3): < 500 nM
IC50 (CDK19): < 500 nM
IC50 (VEGFR-2): < 500 nM
IC50 (PDGFR-α): < 500 nM
IC50 (CDK8): < 500 nM
IC50 (PDGFRβ [2]): < 500 nM
Activity in MTS cell viability assay compared to imatinib and quizartinib controls [1]: improved activity when compared to the imatinib and quizartinib controls
IC50 ([1]; Mus musculus, BaF3, read-out: IC50 (nM) MTS Assay 1): < 500 nM
Inhibition of PDGFRβ signaling (PDGFRβ autophosphorylation, Shp2 phosphorylation) (PDGFRβ [4]): able to inhibit PDGFRβ signaling

Cn1nc(NC(=O)CNc2ccc(-c3cnc4cnccn34)c(F)c2)cc1C(F)(F)F [Example 18]
IC50 (Flt3): < 500 nM
IC50 (CDK19): < 500 nM
IC50 (VEGFR-2): < 500 nM
IC50 (PDGFR-α): < 500 nM
IC50 (CDK8): < 500 nM
IC50 (PDGFRβ [2]): < 500 nM

Cn1nc(NC(=O)COc2ccc(-c3cnc4cnccn34)c(F)n2)cc1C(F)(F)F [Example 6]
IC50 [3]: < 500 nM
IC50 [1, 5]: 500 to 5000 nM

Cn1nc(NC(=O)COc2ccc(-c3cnc4cnccn34)cn2)cc1C(F)(F)F [Example 9]
IC50 (CDK19): < 500 nM
IC50 (CDK8): < 500 nM
IC50 ([1]; concentration required to reduce cell viability to 50%, BA/F3 cells expressing PDGFR, 20-48 hrs, read-out: IC50 (nM) MTS Assay 1): < 500 nM

Cc1ccc(NC(=O)COc2ccc(-c3cnc4ccc(-c5ccc(C(=O)N6CCOCC6)cc5)cn34)cc2)cc1C(F)(F)F [Example 10]
IC50 [1, 5]: < 500 nM
